Reference: publication PMC5786306, “An AKAP-Lbc-RhoA interaction inhibitor promotes the translocation of aquaporin-2 to the plasma membrane of renal collecting duct principal cells” (PLoS ONE, 2018)

Tests used:
[1] = system: AQP2 localization and F-actin in primary IMCD cells; assay: Immunofluorescence microscopy of AQP2 and F-actin in primary IMCD cells; assay type: cell-based, rat
Description: Primary rat renal inner medullary collecting duct (IMCD) cells were obtained and cultured as previously described. AQP2 was detected with specific rabbit (H27 antibody) and secondary Cy3-coupled antibodies, and F-actin was visualized with Alexa Fluor 647-Phalloidin by laser scanning microscopy (LSM780; Zeiss Jena, Germany) as described.
Fig 8 Scaff10-8 promotes the redistribution of AQP2 to the plasma membrane of primary IMCD cells, which is independent of cAMP elevation and associated with depolymerization of F-actin. (A) Upper panel. IMCD cells were treated with DMSO (1%; control), the solvent of Scaff10-8, or forskolin (10 μM, 30 min) to stimulate cAMP synthesis. Lower panels: The cells were treated for 1 hour with Scaff10-8 (30 μM) alone (control) or with Scaff10-8 and forskolin. Forskolin (10 μM) was added for the final 30 min of Scaff10-8 incubation. AQP2 (green) was detected with specific primary and Cy3-coupled secondary antibodies, F-actin (red) with Alexa Fluor 647-Phalloidin and nuclei with DAPI (blue). Signals were visualized using a laser scanning microscope. Representative images are shown. n = 3. The magnified views were derived from the indicated boxes. (B) The signal intensities arising from intracellular and plasma membrane AQP2 were recorded, related to nuclear signal intensities, and the ratios of plasma membrane to intracellular fluorescence signal intensities were calculated (n = 30 cells per condition). Ratios > 1 indicate a predominant localization of AQP2 at the plasma membrane. Statistically significant differences were calculated using one-way ANOVA with posthoc Bonferroni. Mean ± SEM; *, p ≤ 0.05; *** p ≤ 0.001.

[2] = system: AQP2 insertion into the plasma membrane of IMCD cells; assay: Biotinylation of cell surface proteins; assay type: cell-based, rat; conditions: Scaff10-8 30 μM, 1 or 24 h, forskolin 30 μM, 30 min
Method: The assay was performed according to Bogum et al.. IMCD cells were treated with Scaff10-8 at a concentration of 30 μM for 1 or 24 h (0.3% DMSO final concentration). DMSO (0.3%) was used as a control for the 24 h of incubation. Cells were stimulated with forskolin (30 min, 30 μM). Cells were washed twice with ice-cold PBS and incubated with biotinylation buffer (500 μg Biotin per well; 10 mM triethanolamine; 150 mM NaCl; 1 mM MgCl2; 0.1 mM CaCl2; pH 8.0) for 60 min at 4°C. After two washing steps with biotinylation buffer, cells were incubated for 10 min with quenching buffer (50 mM NH4Cl in PBS) at 4°C. Lysates were prepared using biotinylation lysis buffer 1 (SLB; 0.5% Triton X-100; 0.2% BSA; Complete mini EDTA-free). Lysates were sonicated and incubated for 20 min at 37°C. Cell debris was removed by centrifugation (30 min, 15,000x g, 4°C). Lysates were incubated with 80 μl streptavidin agarose beads at 4°C overnight. Beads were washed three times with biotinylation lysis buffer 1 and 2 (SLB; 0.5% Triton X-100; Complete mini EDTA-free). Proteins were eluted using sample buffer and analyzed by Western blotting.
(A) IMCD cells were treated with either compound (30 μM) or DMSO for 1 or 24 h. Membrane proteins were biotinylated followed by precipitation with streptavidin agarose beads. […] (B) Signals from A were quantified by densitometric analysis. […]

[3] = system: hypercholesterolemic patients; design: method as in PMID 26575415, PMID 21858457; conditions: cited from earlier work
untagged RhoA = target: T1, untagged RhoA (human, UniProt P61586 1-193); assay: MST; GFP-AKAP-Lbc/DHPH constant at 150 nM, unlabeled RhoA titrated 36.01 nM-590 uM in MST buffer; 1 h at room temperature; Monolith NT.115; conditions: both partners purified
T1 construct: RhoA; also called unlabeled RhoA; source: recombinant, purified
T1 sequence (P61586 whole entry): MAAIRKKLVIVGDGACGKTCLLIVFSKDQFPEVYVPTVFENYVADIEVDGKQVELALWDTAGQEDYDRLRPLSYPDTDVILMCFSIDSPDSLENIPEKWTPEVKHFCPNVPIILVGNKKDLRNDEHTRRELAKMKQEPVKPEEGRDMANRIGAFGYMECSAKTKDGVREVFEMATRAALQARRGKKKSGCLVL

C=C[C@@]1(C)CC(=O)[C@]2(O)[C@@]3(C)[C@@H](O)CCC(C)(C)[C@@H]3[C@H](O)[C@H](OC(C)=O)[C@@]2(C)O1 [forskolin, reference compound]
F-actin ([1]; Scaff10-8 30 μM alone, forskolin alone): caused depolymerization
localization of AQP2 ([1]; Scaff10-8 30 μM, 1 h, no forskolin, forskolin 10 μM, 30 min): induced its redistribution to the plasma membrane
insertion of AQP2 into the plasma membrane [2]: induced the membrane insertion of AQP2

CCC(C)(C)C(=O)O[C@H]1C[C@@H](C)C=C2C=C[C@H](C)[C@H](CC[C@@H]3C[C@@H](O)CC(=O)O3)[C@H]21 [simvastatin]
diuresis and urine osmolality [3]: reduced diuresis and increased urine osmolality

B1: GFP-AKAP-Lbc/DHPH (domain or fragment)
chain: EAESWSRIIDSKFLKQQKKDVVKRQEVIYELMQTEFHHVRTLKIMSGVYSQGMMADLLFEQQMVEKLFPCLDELISIHSQFFQRILERKKESLVDKSEKNFLIKRIGDVLVNQFSGENAERLKKTYGKFCGQHNQSVNYFKDLYAKDKRFQAFVKKKMSSSVVRRLGIPECILLVTQRITKYPVLFQRILQCTKDNEVEQEDLAQSLSLVKDVIGAVDSKVASYEKKVRLNEIYTKTDSKSIMRMKSGQMFAKEDLKRKKLVRDGSVFLKNAAGRLKEVQAVLLTDILVFLQEKDQKYIFASLDQKSTVISLKKLIVREVAHEEKGLFLISMGMTDPEMVEVHASSKEERNSWIQIIQDTINTL
modifications: GFP and His6 tags left out. Limits are codons 1972-2335, from bp 5,914-7,005 of CCDS32320.1 (human CDS); the nucleotide changes only removed rare codons. The range encloses the annotated DH …
Kd (untagged RhoA): 42 µM
